According to patent US12534469B2 (CHILDREN'S HOSPITAL MEDICAL CENTER, priority 2020, dated 2026):
Each block holds one compound with its values, some of them ahead of it.

Legend:
MOLM14 (D835Y) cells = assay: Combination drug screening, 10 x 10 matrix, cell viability (Cell Titer Glo); format: cell-based; conditions: for Sum Excess HSA / Interaction with Compound 96: combination with Compound 96, 10 x 10 dataset; for Sum Excess HSA: 48 hours; for concentration required to reach a similar level of potentiation as Compound 106: 7.8 nM Venetoclax, 10×10 combination, compared with Compound 106; for Interaction with Venetoclax: combination with Venetoclax, 10 x 10 dataset
Experimental: Briefly, 10 nL of compounds were acoustically dispensed into 1536-well white polystyrene tissue culture-treated plates with an Echo 550 acoustic liquid handler (Labcyte). MOLM14 (D835Y) cells were then added to compound-containing plates at a density of 500-cells/well in 5 μL of medium. A 10-point custom concentration range was used for all listed drugs. Plates were incubated for 48 hours at standard incubator conditions covered by a stainless steel gasketed lid to prevent evaporation. 48 h post compound addition, 3 μL of Cell Titer Glo (Promega) were added to each well and plates were incubated at room temperature for 15 minutes with the stainless-steel lid in place. Luminescence readings were taken using a Viewlux imager (PerkinElmer) with a 2 second exposure time per plate.
However, different methodologies may yield different numerical scores, and different definitions of what constitutes a deviation from mere additivity vs true drug synergy.
However, the utility in certain drug combinations vs others should not be distinguished based on cutoffs between HSA scores, because the score itself is only a relative indicator that is completely dependent on experimental design and is not an absolute number. Furthermore, the concept of what constitutes clinically meaningful drug synergy is something that is still being debated, not only between pharmacologists and physicians, but amongst pharmacologists themselves.

IRAK1 = target: T1, IRAK1 (Homo sapiens, UniProt P51617); assay: RBC HotSpot Kinase Assay, IRAK1; format: biochemical
T1 construct: purchased Reaction Biology (RBC HotSpot Kinase Assay)
Outline: (§1)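 Radiometric filter-binding (HotSpot) activity assay on isolated recombinant kinase, possibly truncated or catalytic domain only, in 20 mM Hepes pH 7.5, 10 mM MgCl2, 1 mM EGTA, 2 mM DTT, 1% DMSO. Compound preincubated 20 min with kinase and substrate, then ^33P-ATP added. Reaction 2 h at room temperature, read by P81 filter binding.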

FLT3 = target: T2, FLT3 (Homo sapiens, UniProt P36888); assay: RBC HotSpot Kinase Assay, FLT3; format: biochemical
T2 construct: purchased Reaction Biology (RBC HotSpot Kinase Assay)
T2 sequence (P36888 564-958 limits assumed): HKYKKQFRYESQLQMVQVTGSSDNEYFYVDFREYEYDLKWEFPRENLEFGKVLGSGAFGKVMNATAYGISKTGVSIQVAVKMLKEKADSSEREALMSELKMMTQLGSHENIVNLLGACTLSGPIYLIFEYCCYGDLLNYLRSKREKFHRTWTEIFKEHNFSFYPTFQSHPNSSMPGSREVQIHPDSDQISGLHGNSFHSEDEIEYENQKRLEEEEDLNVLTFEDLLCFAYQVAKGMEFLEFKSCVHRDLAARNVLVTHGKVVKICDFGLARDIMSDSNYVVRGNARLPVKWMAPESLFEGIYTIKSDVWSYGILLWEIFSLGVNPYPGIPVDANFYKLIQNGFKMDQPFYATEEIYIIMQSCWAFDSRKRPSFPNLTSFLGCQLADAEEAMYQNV
Outline: as §1

IRAK4 = target: T3, IRAK4 (Homo sapiens, UniProt Q9NWZ3); assay: RBC HotSpot Kinase Assay, IRAK4; format: biochemical; parameters: purchased Reaction Biology (RBC HotSpot Kinase Assay)
T3 sequence (Q9NWZ3 1-460): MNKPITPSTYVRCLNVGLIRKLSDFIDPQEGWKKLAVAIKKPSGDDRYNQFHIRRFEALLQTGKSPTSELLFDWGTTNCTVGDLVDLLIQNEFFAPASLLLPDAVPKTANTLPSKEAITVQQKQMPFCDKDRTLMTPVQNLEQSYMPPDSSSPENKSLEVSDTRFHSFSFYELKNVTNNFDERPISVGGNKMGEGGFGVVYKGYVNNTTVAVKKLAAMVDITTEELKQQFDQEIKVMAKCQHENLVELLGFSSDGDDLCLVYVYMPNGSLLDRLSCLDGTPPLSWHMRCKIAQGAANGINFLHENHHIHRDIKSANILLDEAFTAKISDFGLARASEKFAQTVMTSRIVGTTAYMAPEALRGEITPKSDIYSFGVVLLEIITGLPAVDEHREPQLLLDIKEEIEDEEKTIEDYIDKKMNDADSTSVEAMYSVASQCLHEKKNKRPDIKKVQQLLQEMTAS
Outline: as §1

T1 sequence (P51617 whole entry): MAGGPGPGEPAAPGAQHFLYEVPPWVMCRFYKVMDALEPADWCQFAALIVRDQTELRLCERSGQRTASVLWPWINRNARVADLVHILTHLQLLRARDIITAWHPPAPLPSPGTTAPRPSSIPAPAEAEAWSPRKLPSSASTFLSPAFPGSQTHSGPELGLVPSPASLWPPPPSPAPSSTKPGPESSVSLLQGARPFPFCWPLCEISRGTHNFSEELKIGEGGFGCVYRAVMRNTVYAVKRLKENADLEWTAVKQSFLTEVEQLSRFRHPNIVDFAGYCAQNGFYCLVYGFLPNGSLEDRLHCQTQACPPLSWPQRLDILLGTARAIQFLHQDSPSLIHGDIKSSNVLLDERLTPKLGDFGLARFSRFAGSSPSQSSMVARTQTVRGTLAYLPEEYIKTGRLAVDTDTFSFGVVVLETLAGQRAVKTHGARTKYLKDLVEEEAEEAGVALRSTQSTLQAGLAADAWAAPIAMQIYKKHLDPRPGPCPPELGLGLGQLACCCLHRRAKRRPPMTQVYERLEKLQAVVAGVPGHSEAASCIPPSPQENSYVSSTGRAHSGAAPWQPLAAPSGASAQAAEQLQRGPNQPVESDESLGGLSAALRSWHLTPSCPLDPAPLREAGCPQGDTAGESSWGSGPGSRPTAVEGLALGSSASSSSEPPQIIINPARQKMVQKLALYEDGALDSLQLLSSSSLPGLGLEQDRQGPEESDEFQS

Compound: CC(C)[C@@H](CS(=O)(=O)C(C)C)N1C(=O)[C@@](C)(CC(=O)O)C[C@H](c2cccc(Cl)c2)[C@H]1c1ccc(Cl)cc1 [AMG-232]
- Sum Excess HSA (MOLM14 (D835Y) cells): −222.9

Compound: Cc1cc(-c2nc(C(=O)Nc3cc4oc(N5CCOCC5)nc4nc3N3CC[C@@H](O)C3)co2)ccn1 [CA-4948, reference compound]
- concentration required to reach a similar level of potentiation as Compound 106 (MOLM14 (D835Y) cells): substantially higher concentrations
- Interaction with Venetoclax (MOLM14 (D835Y) cells): synergize

Compound: Cc1cnc(-c2ccc(-c3ccc(NC(=O)Nc4c(F)cc(F)cc4F)cc3F)c3c2C(=O)NC3)[nH]1 [CG-806, reference compound]
- concentration required to reach a similar level of potentiation as Compound 106 (MOLM14 (D835Y) cells): substantially higher concentrations
- Interaction with Venetoclax (MOLM14 (D835Y) cells): synergize

- IC50 (IRAK1): 1640 nM
- IC50 (FLT3): 78 nM
- IC50 (IRAK4): 1080 nM
Compound: F[C@H]1CNC[C@@H]1Nc1cccc(-c2cnc3ccc(NC4CCCCC4)nn23)n1 [Compound 92, N-cyclohexyl-3-(6-(((3S,4S)-4-fluoropyrrolidin-3-yl)amino)pyridin-2-yl)imidazo[1,2-b]pyridazin-6-amine]

- IC50 (IRAK1): 2680 nM
- IC50 (FLT3): 4 nM
- IC50 (IRAK4): 39 nM
Compound: F[C@H]1CNC[C@@H]1Nc1cccc(-c2cnc3ccc(N4CCC4)nn23)n1 [Compound 93, 6-(6-(azetidin-1-yl)imidazo[1,2-b]pyridazin-3-yl)-N-((3S,4S)-4-fluoropyrrolidin-3-yl)pyridin-2-amine]

- IC50 (IRAK1): 1050 nM
- IC50 (FLT3): 6 nM
- IC50 (IRAK4): 33 nM
Compound: F[C@H]1CNC[C@@H]1Nc1cccc(-c2cnc3ccc(N4CCCCC4)nn23)n1 [Compound 94, N-((3S,4S)-4-fluoropyrrolidin-3-yl)-6-(6-(piperidin-1-yl)imidazo[1,2-b]pyridazin-3-yl)pyridin-2-amine]

- IC50 (IRAK1): 1180 nM
- IC50 (FLT3): 4 nM
- IC50 (IRAK4): 24 nM
Compound: F[C@H]1CNC[C@@H]1Nc1cccc(-c2cnc3ccc(N4CCOCC4)nn23)n1 [Compound 95, N-((3S,4S)-4-fluoropyrrolidin-3-yl)-6-(6-morpholinoimidazo[1,2-b]pyridazin-3-yl)pyridin-2-amine]

- IC50 (IRAK1): 375 nM
- IC50 (FLT3): < 0.5 nM
- IC50 (IRAK4): 2 nM
Compound: COc1cc2ncc(-c3cccc(N[C@H]4CNC[C@@H]4C)n3)n2nc1C1CC1 [Compound 98, 6-(6-cyclopropyl-7-methoxyimidazo[1,2-b]pyridazin-3-yl)-N-((3R,4S)-4-methylpyrrolidin-3-yl)pyridin-2-amine]

- IC50 (IRAK1): 3190 nM
- IC50 (FLT3): 9 nM
- IC50 (IRAK4): 323 nM
Compound: CC(C)Oc1cnn2c(-c3cccc(N[C@H]4CNC[C@@H]4F)n3)cnc2c1 [Compound 115, N-((3S,4S)-4-fluoropyrrolidin-3-yl)-6-(7-isopropoxyimidazo[1,2-b]pyridazin-3-yl)pyridin-2-amine]

- IC50 (IRAK1): 75 nM
- IC50 (FLT3): < 0.5 nM
- IC50 (IRAK4): < 0.5 nM
Compound: COc1cc2ncc(-c3cccc(N[C@H]4CNC[C@@H]4F)n3)n2nc1-c1cn[nH]c1 [Compound 119]

- IC50 (IRAK1): > 10000 nM
- IC50 (FLT3): 13 nM
- IC50 (IRAK4): 1980 nM
Compound: COc1cc2ncc(-c3cccc(N[C@@H]4CCCNC4)n3)n2nc1N1CCCC1=O [Compound 137, (R)-1-(7-methoxy-3-(6-(piperidin-3-ylamino)pyridin-2-yl)imidazo[1,2-b]pyridazin-6-yl)pyrrolidin-2-one]

Compound: Cc1c(-c2c(-c3ccc(F)o3)sc3ncnc(O[C@H](Cc4ccccc4OCc4ccnn4CC(F)(F)F)C(=O)O)c23)ccc(OCCN2CCN(C)CC2)c1Cl [Compound S63845]
- Sum Excess HSA (MOLM14 (D835Y) cells): 297.3

Compound: COc1c(OCCCN2CCOCC2)ccc2c1N=C(NC(=O)c1cnc(N)nc1)N1CCN=C21 [Copanlisib]
- Sum Excess HSA (MOLM14 (D835Y) cells): −542.8

Compound: C[C@@H]1C[C@H]2[C@@H]3CCC4=CC(=O)C=C[C@]4(C)[C@@]3(F)[C@@H](O)C[C@]2(C)[C@@]1(O)C(=O)CO [Dexamethasone, dexamethasone, reference compound]
- Sum Excess HSA (MOLM14 (D835Y) cells): −69.67

Compound: CN1C(=O)[C@@H](NC(=O)c2n[nH]c(Cc3ccccc3)n2)COc2ccccc21 [GSK-2982772]
- Interaction with Compound 96 (MOLM14 (D835Y) cells): Synergestic
- Sum Excess HSA (MOLM14 (D835Y) cells): −577

Compound: Nc1ccn([C@@H]2O[C@H](CO)[C@@H](O)C2(F)F)c(=O)n1 [Gemcitabine, reference compound]
- Sum Excess HSA (MOLM14 (D835Y) cells): 30.69

Compound: O=C1CC[C@H](N2Cc3c(OCc4ccc(CN5CCOCC5)cc4)cccc3C2=O)C(=O)N1 [Iberdomide]
- Interaction with Compound 96 (MOLM14 (D835Y) cells): Antagonistic

Compound: COc1cc(C(=O)O)ccc1NC(=O)[C@@H]1N[C@@H](CC(C)(C)C)[C@](C#N)(c2ccc(Cl)cc2F)[C@H]1c1cccc(Cl)c1F [Idasanutlin]
- Sum Excess HSA (MOLM14 (D835Y) cells): 192.3

Compound: C[C@H]1C[C@@H]2[C@H]([C@@H](O)C[C@@]3(C)[C@H]2CC[C@]3(O)C(=O)CO)[C@@]2(C)C=CC(=O)C=C12 [Methylprednisolone, methylprednisolone, reference compound]
- Sum Excess HSA (MOLM14 (D835Y) cells): 891

Compound: CC1(C)CCC(c2ccc(Cl)cc2)=C(CN2CCN(c3ccc(C(=O)NS(=O)(=O)c4ccc(N[C@H](CCN5CCOCC5)CSc5ccccc5)c(S(=O)(=O)C(F)(F)F)c4)cc3)CC2)C1 [Navitoclax (ABT-263), Navitoclax, reference compound]
- Sum Excess HSA (MOLM14 (D835Y) cells): −227.3

Compound: CN1C(=O)N[C@H](Cc2c[nH]c3c(Cl)cccc23)C1=O [Necrostatin 2]
- Sum Excess HSA (MOLM14 (D835Y) cells): 288.7

Compound: CC1(C)CC[C@]2(NC(=O)C(C)(F)F)CC[C@]3(C)[C@H](C(=O)C=C4[C@@]5(C)C=C(C#N)C(=O)C(C)(C)[C@@H]5CC[C@]43C)[C@@H]2C1 [Omaveloxolone]
- Sum Excess HSA (MOLM14 (D835Y) cells): 196

Compound: CC(=O)c1c(C)c2cnc(Nc3ccc(N4CCNCC4)cn3)nc2n(C2CCCC2)c1=O [Palbociclib, reference compound]
- Sum Excess HSA (MOLM14 (D835Y) cells): 999.2

Compound: C[C@]12C=CC(=O)C=C1CC[C@@H]1[C@@H]2[C@@H](O)C[C@@]2(C)[C@H]1CC[C@]2(O)C(=O)CO [Prednisolone, prednisolone, reference compound]
- Sum Excess HSA (MOLM14 (D835Y) cells): −46.1

Compound: CC(C)(C)c1cc(NC(=O)Nc2ccc(-c3cn4c(n3)sc3cc(OCCN5CCOCC5)ccc34)cc2)no1 [Quizartinib, reference compound]
- concentration required to reach a similar level of potentiation as Compound 106 (MOLM14 (D835Y) cells): substantially higher concentrations
- Interaction with Venetoclax (MOLM14 (D835Y) cells): synergize

Compound: COc1cccc2nc(-c3cccs3)nc(NN3C(=O)C=C(C)C3=O)c12 [SPC-839]
- Sum Excess HSA (MOLM14 (D835Y) cells): −326.8

Compound: CC1(C)CCC(C)(C)c2cc(NC(=O)c3ccc(C(=O)O)cc3)ccc21 [Tamibarotene]
- Sum Excess HSA (MOLM14 (D835Y) cells): 850.4

Compound: CCOC(=O)c1ccc(C#Cc2ccc3c(c2)C(C)(C)CCS3)nc1 [Tazarotene]
- Sum Excess HSA (MOLM14 (D835Y) cells): −189

Compound: CCN(c1cc(-c2ccc(CN3CCOCC3)cc2)cc(C(=O)NCc2c(C)cc(C)[nH]c2=O)c1C)C1CCOCC1 [Tazemetostat, tazemetostat, reference compound]
- Sum Excess HSA (MOLM14 (D835Y) cells): 74.36

Compound: CC1(C)CCC(CN2CCN(c3ccc(C(=O)NS(=O)(=O)c4ccc(NCC5CCOCC5)c([N+](=O)[O-])c4)c(Oc4cnc5[nH]ccc5c4)c3)CC2)=C(c2ccc(Cl)cc2)C1 [Venetoclax (ABT-199), venetoclax, reference compound]
- Sum Excess HSA (MOLM14 (D835Y) cells): −549.6211

Compound: Gilteritinib hemifumarate [reference compound]
- concentration required to reach a similar level of potentiation as Compound 106 (MOLM14 (D835Y) cells): substantially higher concentrations

Compound: Gilteritinib hemifumerate [reference compound]
- Interaction with Venetoclax (MOLM14 (D835Y) cells): synergize
